# In US10966426B2, “Herbicidal compositions comprising phenylpyrimidines” (BASF SE, priority 2016, dated 2021):
# Key:
# Assay type in all cases: in vivo
# Poa annua = experiment: greenhouse pre-emergence treatment, POAAN; conditions: Poa annua, 480 h, 20 DAT; for inhibition at 500000 µg/mL (stock): sc
# From the text: (§1) The culture containers used were plastic pots containing loamy sand with approximately 3.0% of humus as substrate. The seeds of the test plants were sown separately for each species.
# (§2) For the pre-emergence treatment, the active compounds, suspended or emulsified in water, were applied directly after sowing by means of finely distributing nozzles. The containers were irrigated gently to promote germination and growth and subsequently covered with transparent plastic hoods until the plants had rooted. This cover caused uniform germination of the test plants unless this was adversely affected by the active compounds.
# (§3) Depending on the species, the plants were kept at 10-25° C. and 20-35° C., respectively.
# (§4) The test period extended over 2 to 4 weeks. During this time, the plants were tended and their response to the individual treatments was evaluated.
# (§5) Evaluation was carried out using a scale from 0 to 100. 100 means no emergence of the plants, or complete destruction of at least the above-ground parts, and 0 means no damage or normal course of growth. A good herbicidal activity is given at values of at least 70, and very good herbicidal activity is given at values of at least 85.
# (§6) The respective stated components A and B, and if appropriate, C were formulated as a 10% by weight strength emulsion concentrate and, with addition of the amount of solvent system, introduced into the spray liquor used for applying the active compound. In the examples, the solvent used was water.
# (§7) In the examples below, using the method of S. R. Colby (1967) “Calculating synergistic and antagonistic responses of herbicide combinations”, Weeds 15, p. 22ff., the value E, which is expected if the activity of the individual active compounds is only additive, was calculated. E=X+Y−(X·Y/100) where X=effect in percent using herbicide A at an application rate a; • Y=effect in percent using herbicide B at application rate b; • E=expected effect (in %) of herbicide A+herbicide B at application rates a+b.
# Papaver rhoeas = experiment: greenhouse pre-emergence treatment, PAPRH; conditions: 20 DAT
# From the text: as §1, §2, §3, §4, §5, §6, §7
# Matricaria chamomilla = experiment: greenhouse pre-emergence treatment, MATCH; conditions: Matricaria chamomilla, 480 h, 20 DAT
# From the text: as §1, §2, §3, §4, §5, §6, §7
# Lolium multiflorum = experiment: greenhouse pre-emergence treatment, LOLMU; conditions: Lolium multiflorum, 480 h, 20 DAT, LOLMU
# Summary of the method: (§8)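 Pre-emergence spray of compounds, alone or as combinations formulated as 10% emulsion concentrate in water, directly after sowing in loamy sand (~3.0% humus); pots hooded until rooting, kept at 10-25° C or 20-35° C per species for 2 to 4 weeks. Damage scored 0-100 (100 = no emergence/complete destruction); Colby expected value E=X+Y−(X·Y/100).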
# Polygonum convolvulus = experiment: greenhouse pre-emergence treatment, POLCO; conditions: Fallopia convolvulus, 480 h, 20 DAT, POLCO
# Summary of the method: as §8
# Setaria viridis = experiment: greenhouse pre-emergence treatment, SETVI; conditions: SETVI
# Summary of the method: as §8
# Galium aparine = experiment: greenhouse pre-emergence treatment, GALAP; conditions: Galium aparine, 480 h, solo, EC 800 g/l, GALAP, 500 gai/ha, 20 DAT
# Summary of the method: as §8
# Bromus sterilis = experiment: greenhouse pre-emergence treatment, BROST; conditions: Bromus sterilis, 480 h, 20 DAT, BROST
# Summary of the method: as §8
# Brachiaria decumbens = experiment: greenhouse pre-emergence treatment, BRADC; conditions: Urochloa decumbens, 480 h, 20 DAT, BRADC
# Summary of the method: as §8
# BRAPL = experiment: greenhouse pre-emergence treatment, BRAPL; conditions: Table X9, 21 DAT
# Alopecurus myosuroides = experiment: greenhouse pre-emergence treatment, ALOMY; conditions: Alopecurus myosuroides, 480 h, 20 DAT, solo terbuthylazin (SC 500 g/l) 250 gai/ha
# From the text: as §1, §2, §3, §4, §5, §6, §7
# Avena fatua = experiment: greenhouse pre-emergence treatment, AVEFA; conditions: Avena fatua, 480 h, AVEFA, 20 DAT, solo terbuthylazin (SC 500 g/l) 500 gai/ha
# Summary of the method: as §8
# Stellaria media = experiment: greenhouse pre-emergence treatment, STEME; conditions: Stellaria media, 480 h, 20 DAT, solo terbuthylazin (SC 500 g/l) 62.5 gai/ha
# From the text: as §1, §2, §3, §4, §5, §6, §7
# Echinocloa crus-galli = experiment: greenhouse pre-emergence treatment, ECHCG; conditions: 20 DAT; for % activity: terbuthylazin solo (SC 500 g/l)
# From the text: as §1, §2, §3, §4, §5, §6, §7
# Digitaria sanguinalis = experiment: greenhouse pre-emergence treatment, DIGSA; conditions: Digitaria sanguinalis, sc, 480 h, DIGSA, 20 DAT
# Summary of the method: as §8
# Apera spica-venti = experiment: greenhouse pre-emergence treatment, APESV; conditions: Apera spica-venti, sc, 480 h, 20 DAT
# Summary of the method: as §8
# Ambrosia elatior = experiment: greenhouse pre-emergence treatment, AMBEL; conditions: Ambrosia artemisiifolia, 480 h, terbuthylazin solo (SC 500 g/l), 500 gai/ha, 20 DAT, AMBEL
# Summary of the method: as §8
# Lolium perenne = experiment: greenhouse post-emergence treatment, LOLPE; conditions: solo terbuthylazin (SC 500 g/l) 125 gai/ha, 20 DAT, 2nd series of rows
# Method: as §1
# To this end, the test plants were either sown directly, and grown in the same containers, or they were first grown separately as seedlings and transplanted into the test containers a few days prior to treatment.
# as §3, §4, §5
# In the examples, the solvent used was water.
# In the examples below, using the method of S. R. Colby (1967) “Calculating synergistic and antagonistic responses of herbicide combinations”, Weeds 15, p. […] E=X+Y−(X·Y/100) where X=effect in percent using herbicide A at an application rate a; • Y=effect in percent using herbicide B at application rate b; • E=expected effect (in %) of herbicide A+herbicide B at application rates a+b.
# [1] = prosulfocarb solo 250 gai/ha, read-out: % activity
# [2] = solo terbuthylazin (SC 500 g/l) 62.5 gai/ha
# [3] = solo terbuthylazin (SC 500 g/l) 125 gai/ha
# [4] = solo terbuthylazin (SC 500 g/l) 250 gai/ha
# [5] = sc, solo terbuthylazin (SC 500 g/l) 250 gai/ha
# [6] = sc, solo terbuthylazin (SC 500 g/l) 500 gai/ha
compound,measurement,setting,value
CCCN(CCC)C(=O)SCc1ccccc1 [prosulfocarb],inhibition at 125 g/ha,Poa annua; prosulfocarb solo 125 gai/ha,0%
same,inhibition at 1000 g/ha,"Papaver rhoeas; Papaver rhoeas, 480 h, prosulfocarb solo 1000 gai/ha",70%
same,% activity,"Papaver rhoeas; solo, EC 800 g/l, 1000 gai/ha",70%
same,inhibition at 250 g/ha,Matricaria chamomilla; prosulfocarb solo 250 gai/ha,0%
same,inhibition at 1000 g/ha,Matricaria chamomilla; prosulfocarb solo 1000 gai/ha,65%
same,inhibition at 250 g/ha,Lolium multiflorum; prosulfocarb solo 250 gai/ha,30%
same,inhibition at 250 g/ha,Polygonum convolvulus; [1],0%
same,inhibition at 1000 g/ha,Polygonum convolvulus; prosulfocarb solo 1000 gai/ha,80%
same,inhibition at 250 g/ha,"Setaria viridis; Setaria viridis, 480 h, prosulfocarb solo 250 gai/ha, 20 DAT",40%
same,inhibition at 1000 g/ha,"Setaria viridis; Setaria viridis, 480 h, prosulfocarb solo 1000 gai/ha, 20 DAT",85%
same,% activity,"Setaria viridis; solo, EC 800 g/l, 125 gai/ha, 20 DAT",10%
same,pest or weed control at 500 g/ha,Galium aparine,30%
same,inhibition at 250 g/ha,Bromus sterilis; [1],0%
same,inhibition at 500 g/ha,Bromus sterilis; prosulfocarb solo 500 gai/ha,40%
same,inhibition at 1000 g/ha,Bromus sterilis; prosulfocarb solo 1000 gai/ha,50%
same,"% herbicidal activity (weed control, 0-100 scale) at 250 g/ha",Brachiaria decumbens; prosulfocarb solo 250 gai/ha,0%
same,"% herbicidal activity (weed control, 0-100 scale) at 500 g/ha",Brachiaria decumbens; prosulfocarb solo 500 gai/ha,20%
O=C(Nc1ccc(F)cc1F)c1cccnc1Oc1cccc(C(F)(F)F)c1 [diflufenican],% activity,"Setaria viridis; Table X9, 21 DAT, solo diflufenican (SC 500 g/l) 60 gai/ha",70%
same,% activity,BRAPL; solo diflufenican (SC 500 g/l) 15 gai/ha,0%
same,% activity,BRAPL; solo diflufenican (SC 500 g/l) 30 gai/ha,0%
same,% activity,BRAPL; solo diflufenican (SC 500 g/l) 120 gai/ha,20%
"CCNc1nc(Cl)nc(NC(C)(C)C)n1 [terbuthylazin, terbuthylazine]",inhibition at 500000 µg/mL (stock),Poa annua; [2],0%
same,inhibition at 500000 µg/mL (stock),Poa annua; [3],30%
same,inhibition at 500000 µg/mL (stock),Poa annua; [4],70%
same,inhibition at 500000 µg/mL (stock),Alopecurus myosuroides,40%
same,inhibition at 500000 µg/mL,Avena fatua,0%
same,inhibition at 500000 µg/mL (stock),"Lolium multiflorum; sc, solo terbuthylazin (SC 500 g/l) 125 gai/ha",0%
same,inhibition at 500000 µg/mL (stock),Lolium multiflorum; [5],10%
same,inhibition at 500000 µg/mL,Lolium multiflorum; [6],35%
same,"pest or weed control at 500000 µg/mL, 500 g/ha","Polygonum convolvulus; terbuthylazin solo (SC 500 g/l), 500 gai/ha",65%
same,inhibition at 500000 µg/mL (stock),Polygonum convolvulus; [5],0%
same,inhibition at 500000 µg/mL,Polygonum convolvulus; [6],65%
same,inhibition at 500000 µg/mL (stock),"Setaria viridis; Setaria viridis, 480 h, 20 DAT, solo terbuthylazin (SC 500 g/l) 250 gai/ha",0%
same,% activity,"Setaria viridis; terbuthylazin solo (SC 500 g/l), 62.5 gai/ha, 20 DAT",0%
same,% activity,"Setaria viridis; terbuthylazin solo (SC 500 g/l), 125 gai/ha, 20 DAT",0%
same,% activity,"Setaria viridis; terbuthylazin solo (SC 500 g/l), 250 gai/ha, 20 DAT",0%
same,inhibition at 500000 µg/mL (stock),Stellaria media,70%
same,inhibition at 500000 µg/mL,"Echinocloa crus-galli; Echinochloa crus-galli, 480 h, solo terbuthylazin (SC 500 g/l) 500 gai/ha",0%
same,% activity,Echinocloa crus-galli; 62.5 gai/ha,0%
same,% activity,Echinocloa crus-galli; 125 gai/ha,0%
same,inhibition at 500000 µg/mL (stock),Digitaria sanguinalis; [3],0%
same,inhibition at 500000 µg/mL (stock),Digitaria sanguinalis; [4],0%
same,inhibition at 500000 µg/mL,Digitaria sanguinalis; solo terbuthylazin (SC 500 g/l) 500 gai/ha,20%
same,inhibition at 500000 µg/mL (stock),Bromus sterilis; [4],0%
same,inhibition at 500000 µg/mL (stock),Apera spica-venti; [2],0%
same,inhibition at 500000 µg/mL (stock),Apera spica-venti; [3],50%
same,"pest or weed control at 500000 µg/mL, 500 g/ha",Ambrosia elatior,65%
same,% activity,Lolium perenne,35%
